{"source": "ChEMBL document CHEMBL1201862", "about": "“PubChem BioAssay data set” (2004)", "experiment_in_all_cases": "inhibition of tumour cell growth, NCI panel, 48 h", "key": {"DMS-114": {"test_system": "DMS-114"}, "TK-10": {"test_system": "TK-10"}, "SK-OV-3": {"test_system": "SK-OV-3"}, "HOP-62": {"test_system": "HOP-62"}, "SF-539": {"test_system": "SF-539"}, "SK-MEL-5": {"test_system": "SK-MEL-5"}, "HOP-92": {"test_system": "HOP-92"}, "HL-60": {"test_system": "HL-60"}, "OVCAR-4": {"test_system": "OVCAR-4"}, "SR": {"test_system": "SR"}, "HT-29": {"test_system": "HT-29"}, "SF-295": {"test_system": "SF-295"}, "A498": {"test_system": "A498"}, "K562": {"test_system": "K562"}, "DMS-273": {"test_system": "DMS-273"}, "SK-MEL-2": {"test_system": "SK-MEL-2"}, "LXFL 529": {"test_system": "LXFL 529"}, "MOLT-4": {"test_system": "MOLT-4"}, "IGROV-1": {"test_system": "IGROV-1"}, "KM12": {"test_system": "KM12"}, "Malme-3M": {"test_system": "Malme-3M"}, "XF498": {"test_system": "XF498"}, "OVCAR-5": {"test_system": "OVCAR-5"}, "A549": {"test_system": "A549"}, "EKVX": {"test_system": "EKVX"}, "HCT-15": {"test_system": "HCT-15"}, "CAKI-1": {"test_system": "CAKI-1"}, "LOX IMVI": {"test_system": "LOX IMVI"}, "ACHN": {"test_system": "ACHN"}, "SF-268": {"test_system": "SF-268"}, "SK-MEL-28": {"test_system": "SK-MEL-28"}, "NCI-H522": {"test_system": "NCI-H522"}, "RPMI-8226": {"test_system": "RPMI-8226"}, "M14": {"test_system": "M14"}, "OVCAR-3": {"test_system": "OVCAR-3"}, "NCI-H460": {"test_system": "NCI-H460"}, "M19-MEL": {"test_system": "M19-MEL"}, "RXF 393": {"test_system": "RXF 393"}, "COLO 205": {"test_system": "COLO 205"}, "SW-620": {"test_system": "SW-620"}, "SN12C": {"test_system": "SN12C"}, "SNB-78": {"test_system": "SNB-78"}, "DLD-1": {"test_system": "DLD-1"}, "SNB-19": {"test_system": "SNB-19"}, "CCRF-CEM": {"test_system": "CCRF-CEM"}, "SNB-75": {"test_system": "SNB-75"}, "KM-20L2": {"test_system": "KM-20L2"}, "HCC 2998": {"test_system": "HCC 2998"}, "NCI-H226": {"test_system": "NCI-H226"}, "786-0": {"test_system": "786-0"}, "UO-31": {"test_system": "UO-31"}, "HCT-116": {"test_system": "HCT-116"}, "NCI-H23": {"test_system": "NCI-H23"}, "U-251": {"test_system": "U-251"}}, "note": "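These data come from cells grown in 96-well plates and exposed to compound for 48 hours at five concentrations. GI50 marks 50% less growth.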 Active and inactive are the calls of the source. Rule as the data show it: active = GI50 up to about 1.1 µM and inactive = higher.", "data": [{"smiles": "O=c1[nH]n2c(=O)cc[nH]c2c1-c1nnns1", "values": [{"measurement": "GI50", "setting": "DMS-114", "result": "> 100 µM (inactive)"}, {"measurement": "GI50", "setting": "TK-10", "result": "> 100 µM (inactive)"}, {"measurement": "GI50", "setting": "SK-OV-3", "result": "> 100 µM (inactive)"}, {"measurement": "GI50", "setting": "HOP-62", "result": "> 100 µM (inactive)"}, {"measurement": "GI50", "setting": "SF-539", "result": "> 100 µM (inactive)"}, {"measurement": "GI50", "setting": "SK-MEL-5", "result": "> 100 µM (inactive)"}, {"measurement": "GI50", "setting": "HOP-92", "result": "> 100 µM (inactive)"}, {"measurement": "GI50", "setting": "HL-60", "result": "> 100 µM (inactive)"}, {"measurement": "GI50", "setting": "OVCAR-4", "result": "> 100 µM (inactive)"}, {"measurement": "GI50", "setting": "SR", "result": "> 100 µM (inactive)"}, {"measurement": "GI50", "setting": "HT-29", "result": "> 100 µM (inactive)"}, {"measurement": "GI50", "setting": "SF-295", "result": "> 100 µM (inactive)"}, {"measurement": "GI50", "setting": "A498", "result": "> 100 µM (inactive)"}, {"measurement": "GI50", "setting": "K562", "result": "> 100 µM (inactive)"}, {"measurement": "GI50", "setting": "DMS-273", "result": "> 100 µM (inactive)"}, {"measurement": "GI50", "setting": "SK-MEL-2", "result": "> 100 µM (inactive)"}, {"measurement": "GI50", "setting": "LXFL 529", "result": "> 100 µM (inactive)"}, {"measurement": "GI50", "setting": "MOLT-4", "result": "> 100 µM (inactive)"}, {"measurement": "GI50", "setting": "IGROV-1", "result": "> 100 µM (inactive)"}, {"measurement": "GI50", "setting": "KM12", "result": "> 100 µM (inactive)"}, {"measurement": "GI50", "setting": "Malme-3M", "result": "> 100 µM (inactive)"}, {"measurement": "GI50", "setting": "XF498", "result": "> 100 µM (inactive)"}, {"measurement": "GI50", "setting": "OVCAR-5", "result": "> 100 µM (inactive)"}, {"measurement": "GI50", "setting": "A549", "result": "> 100 µM (inactive)"}, {"measurement": "GI50", "setting": "EKVX", "result": "> 100 µM (inactive)"}, {"measurement": "GI50", "setting": "HCT-15", "result": "> 100", "unit": "µM"}, {"measurement": "GI50", "setting": "CAKI-1", "result": "> 100 µM (inactive)"}, {"measurement": "GI50", "setting": "LOX IMVI", "result": "> 100 µM (inactive)"}, {"measurement": "GI50", "setting": "ACHN", "result": "> 100 µM (inactive)"}, {"measurement": "GI50", "setting": "SF-268", "result": "> 100 µM (inactive)"}, {"measurement": "GI50", "setting": "SK-MEL-28", "result": "> 100 µM (inactive)"}, {"measurement": "GI50", "setting": "NCI-H522", "result": "> 100 µM (inactive)"}, {"measurement": "GI50", "setting": "RPMI-8226", "result": "> 100 µM (inactive)"}, {"measurement": "GI50", "setting": "M14", "result": "> 100 µM (inactive)"}, {"measurement": "GI50", "setting": "OVCAR-3", "result": "> 100 µM (inactive)"}, {"measurement": "GI50", "setting": "NCI-H460", "result": "> 100 µM (inactive)"}, {"measurement": "GI50", "setting": "M19-MEL", "result": "> 100 µM (inactive)"}, {"measurement": "GI50", "setting": "RXF 393", "result": "> 100 µM (inactive)"}, {"measurement": "GI50", "setting": "COLO 205", "result": "> 100 µM (inactive)"}, {"measurement": "GI50", "setting": "SW-620", "result": "> 100 µM (inactive)"}, {"measurement": "GI50", "setting": "SN12C", "result": "> 100 µM (inactive)"}, {"measurement": "GI50", "setting": "SNB-78", "result": "> 100 µM (inactive)"}, {"measurement": "GI50", "setting": "DLD-1", "result": "> 100 µM (inactive)"}, {"measurement": "GI50", "setting": "SNB-19", "result": "> 100 µM (inactive)"}, {"measurement": "GI50", "setting": "CCRF-CEM", "result": "> 100 µM (inactive)"}, {"measurement": "GI50", "setting": "SNB-75", "result": "> 100 µM (inactive)"}, {"measurement": "GI50", "setting": "KM-20L2", "result": "> 100 µM (inactive)"}, {"measurement": "GI50", "setting": "HCC 2998", "result": "> 100 µM (inactive)"}, {"measurement": "GI50", "setting": "NCI-H226", "result": "> 100 µM (inactive)"}, {"measurement": "GI50", "setting": "786-0", "result": "> 100 µM (inactive)"}, {"measurement": "GI50", "setting": "UO-31", "result": "> 100 µM (inactive)"}, {"measurement": "GI50", "setting": "HCT-116", "result": "> 100 µM (inactive)"}, {"measurement": "GI50", "setting": "NCI-H23", "result": "> 100 µM (inactive)"}, {"measurement": "GI50", "setting": "U-251", "result": "> 100 µM (inactive)"}]}]}
